Test results from ChEMBL document CHEMBL1201862, “PubChem BioAssay data set” (2004).
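Each compound was tested at five concentrations against cells in 96-well plates for 48 hours. Abbreviation: GI50, concentration required for 50% inhibition of growth.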 Activity calls are given as the source filed them. No stated cut-off is given here; in the data, active = GI50 up to about 1.1 µM and inactive = higher.

Legend:
Assay in all cases: growth of human tumour cells (NCI), 48 h
786-0 = test system: 786-0
CAKI-1 = test system: CAKI-1
COLO 205 = test system: COLO 205
EKVX = test system: EKVX
HCC 2998 = test system: HCC 2998
HL-60 = test system: HL-60
HOP-92 = test system: HOP-92
HT-29 = test system: HT-29
M14 = test system: M14
NCI-H522 = test system: NCI-H522
OVCAR-5 = test system: OVCAR-5
SF-268 = test system: SF-268
CCRF-CEM = test system: CCRF-CEM
HCT-116 = test system: HCT-116
HCT-15 = test system: HCT-15
UACC-62 = test system: UACC-62

Compound | GI50 (786-0) | GI50 (CAKI-1) | GI50 (COLO 205) | GI50 (EKVX) | GI50 (HCC 2998) | GI50 (HL-60) | GI50 (HOP-92) | GI50 (HT-29) | GI50 (M14) | GI50 (NCI-H522) | GI50 (OVCAR-5) | GI50 (SF-268) | GI50 (CCRF-CEM) | GI50 (HCT-116) | GI50 (HCT-15) [µM] | GI50 (UACC-62)
COC(=O)C1C(/C=C/c2ccoc2)ON2CCC[C@@H]12 (some centres not stated) | > 100 µM (inactive) | > 100 µM (inactive) | > 100 µM (inactive) | > 100 µM (inactive) | > 100 µM (inactive) | > 100 µM (inactive) | > 100 µM (inactive) | > 100 µM (inactive) | > 100 µM (inactive) | > 100 µM (inactive) | > 100 µM (inactive) | > 100 µM (inactive) |  |  |  | 
CCOP(=O)(OCC)C(C(=O)OC)C(=O)C(=O)Nc1cccc([N+](=O)[O-])c1 (configuration not stated) | > 100 µM (inactive) | > 100 µM (inactive) | > 100 µM (inactive) | > 100 µM (inactive) | > 100 µM (inactive) | > 100 µM (inactive) |  | > 100 µM (inactive) | > 100 µM (inactive) | > 100 µM (inactive) | > 100 µM (inactive) | > 100 µM (inactive) | > 100 µM (inactive) | > 100 µM (inactive) | > 100 | > 100 µM (inactive)
COc1ccc(-c2c(N)[n+]([O-])c3ccccc3[n+]2[O-])cc1OC | > 100 µM (inactive) | > 100 µM (inactive) | > 100 µM (inactive) | > 100 µM (inactive) |  | > 100 µM (inactive) | > 100 µM (inactive) | > 100 µM (inactive) | > 100 µM (inactive) | > 100 µM (inactive) | > 100 µM (inactive) | > 100 µM (inactive) |  | > 100 µM (inactive) | > 100 | 
Cn1c2ccccc2c2cc(-c3ccccc3)c3c(c21)C(=O)c1ccccc1C3=O | 16.9 µM (inactive) | 28.3 µM (inactive) | 31.5 µM (inactive) | > 10 µM (inactive) | 48.8 µM (inactive) | 9.35 µM (inactive) | 12.3 µM (inactive) | 31.9 µM (inactive) | 14.3 µM (inactive) | 15.2 µM (inactive) |  | 19.1 µM (inactive) | 5.19 µM (inactive) | 15.8 µM (inactive) |  | 13.3 µM (inactive)
COc1ccc2c(c1OC)C(=O)c1cnccc1C2=O | > 100 µM (inactive) | > 100 µM (inactive) | > 100 µM (inactive) | > 100 µM (inactive) | > 100 µM (inactive) | > 100 µM (inactive) | > 100 µM (inactive) | > 100 µM (inactive) | > 100 µM (inactive) | > 100 µM (inactive) | > 100 µM (inactive) |  | > 100 µM (inactive) | > 100 µM (inactive) | > 100 | > 100 µM (inactive)
Nc1ccn(CCNCCn2cnc3nc(N)[nH]c(=O)c32)c(=O)n1 | > 100 µM (inactive) |  | > 100 µM (inactive) | > 100 µM (inactive) | > 100 µM (inactive) | > 100 µM (inactive) | > 100 µM (inactive) | > 100 µM (inactive) |  | > 100 µM (inactive) | > 100 µM (inactive) | > 100 µM (inactive) |  | > 100 µM (inactive) | > 100 | 
C[n+]1c2n(c3nc(N)[nH]c(=O)c31)C1OC(C2)C(O)C1O (configuration not stated) | > 100 µM (inactive) | > 100 µM (inactive) | > 100 µM (inactive) | > 100 µM (inactive) | > 100 µM (inactive) | > 100 µM (inactive) | > 100 µM (inactive) | > 100 µM (inactive) | > 100 µM (inactive) | > 100 µM (inactive) | > 100 µM (inactive) | > 100 µM (inactive) | > 100 µM (inactive) | > 100 µM (inactive) |  | > 100 µM (inactive)
CCCCN(CCCC)CC(C(=O)Nc1ccc([N+](=O)[O-])cc1[N+](=O)[O-])/C(C)=N\NC(=O)c1ccncc1 (configuration not stated) | > 100 µM (inactive) | > 100 µM (inactive) | > 100 µM (inactive) | > 100 µM (inactive) | > 100 µM (inactive) | > 100 µM (inactive) | 90.6 µM (inactive) |  | > 100 µM (inactive) | > 100 µM (inactive) | > 100 µM (inactive) | > 100 µM (inactive) | > 100 µM (inactive) |  | > 100 | > 100 µM (inactive)
COc1ccc(CNc2nc3c(NC(C)=O)cc(C(F)(F)F)cc3nc2-c2ccccc2)cc1OC | 37.1 µM (inactive) | 31.6 µM (inactive) | > 100 µM (inactive) | 35.6 µM (inactive) | > 100 µM (inactive) | > 100 µM (inactive) |  | > 100 µM (inactive) | 42.8 µM (inactive) | 2.69 µM (inactive) | > 100 µM (inactive) | 5.68 µM (inactive) | > 100 µM (inactive) | 48.4 µM (inactive) | > 100 | 45.3 µM (inactive)
CC(C)(C)C(C#N)(C#N)c1ccc(C(C#N)(C#N)C(C)(C)C)nn1 | 74 µM (inactive) | 83 µM (inactive) | > 100 µM (inactive) | > 100 µM (inactive) | > 100 µM (inactive) | > 100 µM (inactive) | 72.4 µM (inactive) | > 100 µM (inactive) | > 100 µM (inactive) | > 100 µM (inactive) | > 100 µM (inactive) | 86.7 µM (inactive) | > 100 µM (inactive) |  | > 100 | > 100 µM (inactive)
CN(C)c1ccc(C(=C(c2ccc(N(C)C)cc2)c2ccc(N(C)C)cc2)c2ccc(N(C)C)cc2)cc1 | 11.4 µM (inactive) | 12.4 µM (inactive) | 0.568 µM (active) | 18.7 µM (inactive) | 16 µM (inactive) | 5.36 µM (inactive) |  | 13.8 µM (inactive) | 6.62 µM (inactive) | 0.301 µM (active) | > 100 µM (inactive) | 21.5 µM (inactive) | 16.6 µM (inactive) | 13.4 µM (inactive) | 14.4 | 18.8 µM (inactive)
Cc1ccc([N+](=O)[O-])cc1NC(=O)C(=O)Cc1nc2ccc(C(=O)c3ccccc3)cc2nc1O | > 100 µM (inactive) | > 100 µM (inactive) | > 100 µM (inactive) | > 100 µM (inactive) | > 100 µM (inactive) | > 100 µM (inactive) | 42.2 µM (inactive) | > 100 µM (inactive) | > 100 µM (inactive) | > 100 µM (inactive) |  |  | > 100 µM (inactive) | > 100 µM (inactive) | > 100 | > 100 µM (inactive)
O=C(CCc1nnc(S)[nH]1)Nc1cc(Cl)c(Cl)cc1Cl | > 100 µM (inactive) | > 100 µM (inactive) | > 100 µM (inactive) |  | > 100 µM (inactive) | > 100 µM (inactive) | > 100 µM (inactive) | > 100 µM (inactive) | > 100 µM (inactive) | > 100 µM (inactive) | > 100 µM (inactive) | > 100 µM (inactive) | > 100 µM (inactive) | > 100 µM (inactive) | > 100 | > 100 µM (inactive)
Cc1c(Cl)ccc2c1NC(=O)C2(O)CC(=O)c1ccc2ccccc2c1 (configuration not stated) | 29 µM (inactive) | 42 µM (inactive) | 85.3 µM (inactive) | 84.7 µM (inactive) | > 100 µM (inactive) |  | 44 µM (inactive) | 39.6 µM (inactive) | 86.1 µM (inactive) | 24.7 µM (inactive) | > 100 µM (inactive) | 32.1 µM (inactive) | 29 µM (inactive) | 48.5 µM (inactive) | 41.1 | 21.5 µM (inactive)
CN(C)c1ccc(C(=C2C=CC(=[N+](C)C)C=C2)c2ccc(N(C)C)cc2)cc1 [GENTIAN VIOLET] | 0.0923 µM (active) | 0.34 µM (active) | 0.189 µM (active) | 0.368 µM (active) | 0.216 µM (active) | 0.04 µM (active) | 0.196 µM (active) |  | 0.163 µM (active) | 0.298 µM (active) | 0.202 µM (active) | 0.133 µM (active) | 0.102 µM (active) |  | 0.334 | 0.143 µM (active)
CN(C(=O)c1ccc(Cl)cc1)C(=S)N1CCN(c2ccccn2)CC1 | > 100 µM (inactive) | > 100 µM (inactive) | > 100 µM (inactive) |  |  | > 100 µM (inactive) | 35.6 µM (inactive) | > 100 µM (inactive) | > 100 µM (inactive) | > 100 µM (inactive) | > 100 µM (inactive) | > 100 µM (inactive) | > 100 µM (inactive) | > 100 µM (inactive) | > 100 | > 100 µM (inactive)
C=CC(=O)N1C/C(=C\c2ccc(Cl)c(Cl)c2)C(=O)/C(=C/c2ccc(Cl)c(Cl)c2)C1 | 0.0579 µM (active) | 0.244 µM (active) | 0.112 µM (active) |  | 0.204 µM (active) |  | 1.19 µM (inactive) | 0.0673 µM (active) | 0.226 µM (active) | 0.149 µM (active) | 0.294 µM (active) | 0.104 µM (active) | 0.0228 µM (active) | 0.0612 µM (active) | 0.0716 | 0.298 µM (active)
CC1(C)OCN(c2ccc(S(N)(=O)=O)cc2)Cn2c1nc1ccccc12 | > 100 µM (inactive) |  | > 100 µM (inactive) | > 100 µM (inactive) | > 100 µM (inactive) | > 100 µM (inactive) | > 100 µM (inactive) | > 100 µM (inactive) | > 100 µM (inactive) | > 100 µM (inactive) |  | > 100 µM (inactive) | > 100 µM (inactive) | > 100 µM (inactive) | > 100 | > 100 µM (inactive)
Cc1ccc(C(c2c(O)c3ccccc3n(-c3ccccc3)c2=O)c2c(O)c3ccccc3n(-c3ccccc3)c2=O)cc1 | 38.1 µM (inactive) | > 100 µM (inactive) | > 100 µM (inactive) | 35.3 µM (inactive) | > 100 µM (inactive) |  | > 100 µM (inactive) |  |  | > 100 µM (inactive) | > 100 µM (inactive) | 82.2 µM (inactive) | 7.06 µM (inactive) | > 100 µM (inactive) | > 100 | 
